Laboratory results as given in patent US11266626B2, “Reduction of ER-MAM-localized APP-C99 and methods of treating alzheimer's disease” (THE TRUSTEES OF COLUMBIA UNIVERSITY IN THE CITY OF NEW YORK, priority 2015, dated 2022).
“Also recorded” adds a separate entry of the source.

Legend:
[1] = system: fibroblasts from AD patients; experiment: Staining of lipid droplets with LipidTox Green; type: cell-based, human; conditions: 100 nM BI
Description: Quantification of total cholesterol and cholesteryl esters was performed using the Cholesterol/Cholesteryl Ester Quantitation kit from Calbiochem (428901). Staining of lipid droplets Staining of lipid droplets was performed using HCS LipidTox™ Deep Green neutral lipid stain (Invitrogen H34475) according to the manufacturer's instructions. Lipid droplet staining was quantified using ImageJ. The different values represent the product of the intensity and the area covered by the fluorescent signal above background in every cell examined.
Staining of lipid droplets was performed using HCS LipidTox™ Deep Green neutral lipid stain (Invitrogen H34475) according to the manufacturer's instructions. Lipid droplet staining was quantified using ImageJ. The different values represent the product of the intensity and the area covered by the fluorescent signal above background in every cell examined.

[2] = system: WT MEFs and presenilin-mutant (PS-DKO) cells; experiment: Filipin staining of free cholesterol; type: cell-based, mouse; conditions: WT MEFs treated with DAPT, then BACE1 inhibitor
Description: Cells were washed in PBS and fixed in 3% paraformaldehyde at room temperature for 1 h. After washing in PBS three times, samples were incubated in 1.5 mg/ml glycine in 1×PBS to quench the paraformaldehyde and then incubated in 0.05 mg/ml of filipin in PBS/10% FBS for 2 h at room temperature. Free cholesterol signal was visualized in by microscopy and quantified by ImageJ.

[3] = system: mitochondrial respiratory supercomplexes; experiment: Supercomplex analysis (blue-native gels, in-gel activity and western blot); type: cell-based, mouse
Description: Analysis and quantification of mitochondrial respiratory complexes by western blot and enzymatic in-gel activity were carried out as previously reported (Acin-Perez et al., 2008)
Analysis and quantification of mitochondrial respiratory complexes by Western blot and enzymatic in-gel activity were carried out as described (Acin-Perez et al, 2008).

WT and PS-DKO cells = experiment: Mitochondrial content and biogenesis (VDAC, TOM20 western blot; PGC-1α qRT-PCR); type: cell-based, mouse
Description: Total RNA was extracted from MEFs using TRIzol® Reagent (Invitrogen 15596-018) according to the manufacture's instructions, and was quantified by NanoDrop2000 (Thermo Scientific). […] of total RNA was used to obtain cDNA by RT-PCR using a High Capacity cDNA Reverse Transcription Kit (Applied Biosystems; PN 4368813, 4374966). Real-Time PCR was performed in triplicate in a StepOnePlus™ Real-Time PCR System (Applied Biosystems; 4376600). The expression of each gene under study was analyzed using specific predesigned TaqMan Probes (PGC-1α, ppargc1 Mm01208835_m1; aSMase, smpd1 Mm00488319_g1; nSMase, smpd3 Mm00491359_m1). The expression of each gene under study was analyzed using specific predesigned TaqMan Probes and normalizing against Gapdh expression (Applied Biosystems, 4352339E) as an internal standard.
Total RNA was extracted from MEFs using TRIzol® Reagent (Invitrogen 15596-018) according to the manufacture's instructions, and was quantified by NanoDrop2000 (Thermo Scientific). […] The expression of each gene under study was analyzed using specific predesigned TaqMan Probes (PGC-1α, ppargcl Mm01208835_ml; aSMase, smpd1 Mm00488319_g1; nSMase, smpd3 Mm00491359_ml). The forward and reverse primers for COXI quantification were, respectively, ([…] (SEQ ID NO: 5); […] (SEQ ID NO: 6)). […]

C[C@@H](NC(=O)c1cc(C(=O)N[C@@H](Cc2ccccc2)[C@H](O)CNC2CC2)cc(N(C)S(C)(=O)=O)c1)c1ccccc1 [BI, β-secretase inhibitor IV]
number of lipid droplets (LDs) [1]: reduced the number of LDs | distribution of free cholesterol (filipin staining punctae) [2]: reverse it | activity of supercomplexes I+III+IV, I+III and III+IV (in-gel complex I and IV activity) ([3]; mitochondria from PS-DKO cells incubated with BI or myriocin): rescued | assembly of respiratory supercomplexes (blue-native PAGE western blot) ([3]; mitochondria from PS-DKO cells, anti-complex I and III antibodies): increases the assembly of supercomplexes I+III and I+III+IV | mitochondrial content / biogenesis (VDAC, TOM20, PGC-1α mRNA) (WT and PS-DKO cells): without changes in mitochondria; also recorded: do not affect mitochondrial biogenesis

C[C@H](NC(=O)Cc1cc(F)cc(F)c1)C(=O)N[C@H](C(=O)OC(C)(C)C)c1ccccc1 [DAPT]
distribution of free cholesterol (filipin staining punctae) [2]: this phenotype was recapitulated | activity of supercomplexes I+III+IV, I+III and III+IV ([3]; mitochondria from DAPT-treated WT cells): decrease in the activity of supercomplexes | mitochondrial content / biogenesis (VDAC, TOM20, PGC-1α mRNA) (WT and PS-DKO cells): do not affect mitochondrial biogenesis
